The text below walks through data of patent US8796296B2, “Aminopyrimidine derivatives as LRRK2 modulators” (Genentech, Inc., priority 2011, dated 2014).

The structures appear in SMILES notation.

LRRK2, sequence (Q5S007 whole entry G2019S): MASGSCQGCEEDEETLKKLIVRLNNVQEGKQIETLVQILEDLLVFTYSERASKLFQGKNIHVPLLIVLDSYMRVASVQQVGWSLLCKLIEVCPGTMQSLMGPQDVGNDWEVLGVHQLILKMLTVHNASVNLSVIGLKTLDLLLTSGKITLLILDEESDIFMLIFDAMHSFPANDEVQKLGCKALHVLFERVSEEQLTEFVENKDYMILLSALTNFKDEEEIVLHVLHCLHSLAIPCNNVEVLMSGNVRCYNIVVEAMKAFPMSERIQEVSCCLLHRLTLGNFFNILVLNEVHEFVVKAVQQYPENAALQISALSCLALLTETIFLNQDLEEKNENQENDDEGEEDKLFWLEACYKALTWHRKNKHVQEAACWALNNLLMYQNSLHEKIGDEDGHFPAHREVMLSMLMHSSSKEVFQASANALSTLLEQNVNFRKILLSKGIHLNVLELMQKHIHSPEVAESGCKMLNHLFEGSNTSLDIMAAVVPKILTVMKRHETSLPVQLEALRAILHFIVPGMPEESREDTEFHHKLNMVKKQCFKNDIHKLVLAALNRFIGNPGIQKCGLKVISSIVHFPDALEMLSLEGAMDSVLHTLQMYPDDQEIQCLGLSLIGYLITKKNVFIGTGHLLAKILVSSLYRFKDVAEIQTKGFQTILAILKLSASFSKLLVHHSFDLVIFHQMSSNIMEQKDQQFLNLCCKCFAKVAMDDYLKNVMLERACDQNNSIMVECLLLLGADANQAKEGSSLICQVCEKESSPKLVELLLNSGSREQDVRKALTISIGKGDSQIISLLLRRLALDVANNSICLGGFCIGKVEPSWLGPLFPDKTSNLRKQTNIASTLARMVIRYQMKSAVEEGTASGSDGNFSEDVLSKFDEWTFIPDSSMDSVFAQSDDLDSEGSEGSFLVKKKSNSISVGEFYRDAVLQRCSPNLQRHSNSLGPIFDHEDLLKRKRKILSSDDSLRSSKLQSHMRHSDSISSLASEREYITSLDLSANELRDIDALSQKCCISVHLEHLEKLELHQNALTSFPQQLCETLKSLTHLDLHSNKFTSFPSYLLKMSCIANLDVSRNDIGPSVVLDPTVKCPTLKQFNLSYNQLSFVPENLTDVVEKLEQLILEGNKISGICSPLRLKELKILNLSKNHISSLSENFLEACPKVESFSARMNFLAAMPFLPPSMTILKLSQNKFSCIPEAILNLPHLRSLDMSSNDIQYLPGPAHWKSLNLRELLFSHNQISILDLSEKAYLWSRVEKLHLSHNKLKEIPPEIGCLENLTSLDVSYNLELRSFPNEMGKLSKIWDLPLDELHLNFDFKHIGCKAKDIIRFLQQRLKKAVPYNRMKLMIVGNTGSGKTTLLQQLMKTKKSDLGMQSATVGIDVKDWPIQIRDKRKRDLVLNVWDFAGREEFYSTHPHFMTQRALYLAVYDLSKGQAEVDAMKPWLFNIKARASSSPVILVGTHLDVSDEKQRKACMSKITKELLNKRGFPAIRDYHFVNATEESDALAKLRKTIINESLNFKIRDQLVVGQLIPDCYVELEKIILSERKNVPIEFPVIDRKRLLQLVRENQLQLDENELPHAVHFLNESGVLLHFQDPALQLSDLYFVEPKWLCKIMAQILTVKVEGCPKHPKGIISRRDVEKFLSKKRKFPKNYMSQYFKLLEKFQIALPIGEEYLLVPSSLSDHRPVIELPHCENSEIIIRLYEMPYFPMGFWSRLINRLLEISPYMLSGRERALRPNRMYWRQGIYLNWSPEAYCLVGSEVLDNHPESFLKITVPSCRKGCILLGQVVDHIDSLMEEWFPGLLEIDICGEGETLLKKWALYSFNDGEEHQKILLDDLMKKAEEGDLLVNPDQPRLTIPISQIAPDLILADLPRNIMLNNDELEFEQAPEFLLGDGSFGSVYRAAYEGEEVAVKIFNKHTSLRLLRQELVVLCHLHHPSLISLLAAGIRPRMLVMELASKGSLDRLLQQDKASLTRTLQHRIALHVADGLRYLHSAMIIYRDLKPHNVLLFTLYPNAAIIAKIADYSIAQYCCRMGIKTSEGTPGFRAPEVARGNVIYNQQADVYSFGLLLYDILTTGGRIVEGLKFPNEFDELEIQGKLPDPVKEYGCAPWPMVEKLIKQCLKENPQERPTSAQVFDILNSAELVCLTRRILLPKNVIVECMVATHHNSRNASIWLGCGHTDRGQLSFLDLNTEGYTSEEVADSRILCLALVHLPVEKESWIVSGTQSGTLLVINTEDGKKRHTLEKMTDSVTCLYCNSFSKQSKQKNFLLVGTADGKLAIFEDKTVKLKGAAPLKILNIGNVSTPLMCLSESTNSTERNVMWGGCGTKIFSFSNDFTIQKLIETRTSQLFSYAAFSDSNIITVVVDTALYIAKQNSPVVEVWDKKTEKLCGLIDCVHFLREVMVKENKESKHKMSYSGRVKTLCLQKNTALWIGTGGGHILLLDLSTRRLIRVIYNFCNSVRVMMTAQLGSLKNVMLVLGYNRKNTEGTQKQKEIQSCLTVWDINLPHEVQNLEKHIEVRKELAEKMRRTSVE

The target in this experiment is LRRK2 (Homo sapiens (Human), UniProt Q5S007, G2019S). Briefly: In Vitro LRRK2 LabChip Assay (LRRK2 Ki). It counts as biochemical. As for the experimental part:
In Vitro LRRK2 LabChip Assay
This assay was used to determine a compound's potency in inhibiting activity of LRRK2 by determining, Kiapp, IC50, or percent inhibition values. In a polypropylene plate, LRRK2, fluorescently-labeled peptide substrate, ATP and test compound were incubated together. Using a LabChip 3000 (Caliper Life Sciences), after the reaction the substrate was separated by capillary electrophoresis into two populations: phosphorylated and unphosphorylated. The relative amounts of each were quantitated by fluorescence intensity. LRRK2 Ki was determined according to the equation: Y=V0*(1−((x+Ki*(1+S/Km)+Et)/(2*Et)−(((x+Ki*(1+S/Km)+Et)^2−(4*Et*x))^0.5)/(2*Et))). Ki values in Table 4 and elsewhere herein are shown in μM.
Assay conditions and materials used were as follows:
LRRK2 Wild type in 5 mM MgCl2: 15 nM (Invitrogen lot #500607F)
Kinase reaction time: 2 hours
Wild type in 5 mM MgCl2: 80 μM
Kinase: LRRK2 G2019S (Invitrogen cat #PV4882). • LRRK2 Wild type (Invitrogen cat #PV4874).
Substrate: 5FAM-GAGRLGRDKYKTLRQIRQ-CONH2
Complete Reaction Buffer: H2O/25 mM Tris, pH 8.0/5 mM MgCl2/2 mM DTT/0.01% Triton X-100.
For serial dilutions, 34.6 μl DMSO was added to columns 3-24. For the assay controls, 37.5 μl DMSO was added to columns 1 and 2 of rows A and P. a,d and 50 μl 25 μM G-028831 (Staurosporine) was added to columns 1 and 2, row B. For the samples: to start at 100 μM, 37.5 μl DMSO was to columns 1 and 2, then 12.5 μl 10 mM compound; to start at 10 μM, 78 μl DMSO was added to columns 1 & 2, then 2 μl 10 mM compound; and to start at 1 μM, 25 μM compound (2 μl 10 mM cmpd+798 μl DMSO) was added to empty columns 1 and 2. A Precision instrument was used to perform 1:3.16 serial dilutions (“PLK_BM_serial_halflog”).
ATP was diluted to 282.1 μM in Complete Kinase Buffer (final concentration was 130 μM).
In Complete Reaction Buffer, substrate was diluted to 4 μM. Equal volumes of Complete Reaction Buffer and 4 μM substrate were combined to obtain the blank. Equal volumes of Complete Reaction Buffer and 4 μM substrate were combined and to the combined solution was added 2× final LRRK2 concentration.
To a 50 μl polypropylene plate, 5 μl/well buffer/substrate was added by hand to Blank wells. A Biomek FX was used to start the kinase reaction (“PLK SAR 23 ATP”). The following were added to the appropriate wells:
The plate was incubated for 2 hours in the dark. Biomek FX was used to stop the kinase reaction (“PLK Stop”), and 10 μl/well Stop solution was added to the Assay Plate.
Results were read on the LabChip 3000.
The LabChip 3000 was run using the job “LRRK2 IC50” with the following job settings: […]
`CNc1nc(Nc2cc3c(cc2Cl)C(=O)N(C)CCO3)ncc1C(F)(F)F` [Compound 1, 7-chloro-4-methyl-8-(4-(methylamino)-5-(trifluoromethyl)pyrimidin-2-ylamino)-3,4-dihydrobenzo[f][1,4]oxazepin-5(2H)-one]: affinity was put at a Ki of 3 nM.
Then `CNc1nc(Nc2cc3c(cc2OC)N(C)C(=O)C(C)(C)O3)ncc1Cl` [Compound 2, 7-((5-chloro-4-(methylamino)pyrimidin-2-yl)amino)-6-methoxy-2,2,4-trimethyl-2H-benzo[b][1,4]oxazin-3(4H)-one], with 1 nM.
The same measure for `CNc1nc(Nc2cc3oc(C(=O)N(C)C)cc3cc2OC)ncc1C(F)(F)F` [Compound 3, 5-methoxy-N,N-dimethyl-6-((4-(methylamino)-5-(trifluoromethyl)pyrimidin-2-yl)amino)benzofuran-2-carboxamide]: 1 nM; for `CNc1nc(Nc2cc3c(cc2Cl)n(C)c(=O)n3C)ncc1C(F)(F)F` [Compound 4, 5-chloro-1,3-dimethyl-6-((4-(methylamino)-5-(trifluoromethyl)pyrimidin-2-yl)amino)-1H-benzo[d]imidazol-2(3H)-one]: 2 nM; for `CNc1nc(Nc2cc3oc(=O)n(C)c3cc2Cl)ncc1C(F)(F)F` [Compound 5, 5-chloro-3-methyl-6-((4-(methylamino)-5-(trifluoromethyl)pyrimidin-2-yl)amino)benzo[d]oxazol-2(3H)-one]: 4 nM.
Then `CNc1nc(Nc2cc3nc(C)oc3cc2Cl)ncc1C(F)(F)F` [Compound 6, N^2-(6-chloro-2-methylbenzo[d]oxazol-5-yl)-N^4-methyl-5-(trifluoromethyl)pyrimidine-2,4-diamine], with 5 nM; and `CNc1nc(Nc2cc3c(cc2OC)CN(C)C3=O)ncc1C(F)(F)F` [Compound 7, 5-methoxy-2-methyl-6-(4-(methylamino)-5-(trifluoromethyl)pyrimidin-2-ylamino)isoindolin-1-one], with 5 nM; and `CNc1nc(Nc2cc3c(cc2Cl)C(=O)N(C)C3)ncc1Cl` [Compound 8, 6-chloro-5-(5-chloro-4-(methylamino)pyrimidin-2-ylamino)-2-methylisoindolin-1-one], with 3 nM.
Compound `CNc1nc(Nc2cc3c(cc2Cl)C(=O)N(C)C3)ncc1C(F)(F)F` [Compound 9, 6-chloro-2-methyl-5-(4-(methylamino)-5-(trifluoromethyl)pyrimidin-2-ylamino)isoindolin-1-one] had a Ki of 1 nM.
Then `CNc1nc(Nc2ccc3c(c2OC)CN(C2CC2)C3=O)ncc1C(F)(F)F` [Compound 10, 2-cyclopropyl-4-methoxy-5-(4-(methylamino)-5-(trifluoromethyl)pyrimidin-2-ylamino)isoindolin-1-one], with 7 nM; and `CNc1nc(Nc2ccc3c(c2OC)CN(C)C3=O)ncc1C(F)(F)F` [Compound 11, 4-methoxy-2-methyl-5-(4-(methylamino)-5-(trifluoromethyl)pyrimidin-2-ylamino)isoindolin-1-one], with 1 nM; and `CNc1nc(Nc2cc3c(cc2OC)N(C)C(=O)C(C)(C)O3)ncc1C(F)(F)F` [Compound 12, 6-methoxy-2,2,4-trimethyl-7-(4-(methylamino)-5-(trifluoromethyl)pyrimidin-2-ylamino)-2H-benzo[b][1,4]oxazin-3(4H)-one], with 8 nM.
The compound `CNc1nc(Nc2cc3oc(=O)[nH]c3cc2Cl)ncc1Cl` [Compound 13, 5-chloro-6-(5-chloro-4-(methylamino)pyrimidin-2-ylamino)benzo[d]oxazol-2(3H)-one] returned a Ki of 4 nM.
With `CNc1nc(Nc2cc3c(cc2OC)C(=O)N(C)CC3)ncc1C(F)(F)F` [Compound 15, 7-methoxy-2-methyl-6-(4-(methylamino)-5-(trifluoromethyl)pyrimidin-2-ylamino)-3,4-dihydroisoquinolin-1(2H)-one], the Ki was found to be 7 nM.
The same measure for `CNc1nc(Nc2cc3c(cc2OC)C(=O)N(C)CC3)ncc1C#N` [Compound 16, 2-(7-methoxy-2-methyl-1-oxo-1,2,3,4-tetrahydroisoquinolin-6-ylamino)-4-(methylamino)pyrimidine-5-carbonitrile]: 44 nM; for `CNc1nc(Nc2cc3cnn(C)c(=O)c3cc2OC)ncc1C(F)(F)F` [Compound 17, 7-methoxy-2-methyl-6-(4-(methylamino)-5-(trifluoromethyl)pyrimidin-2-ylamino)phthalazin-1(2H)-one]: 27 nM; for `CCN1Cc2c(ccc(Nc3ncc(C(F)(F)F)c(NC)n3)c2OC)C1=O` [Compound 18, 2-ethyl-4-methoxy-5-(4-(methylamino)-5-(trifluoromethyl)pyrimidin-2-ylamino)isoindolin-1-one]: 9 nM.
The same measure for `CNc1nc(Nc2ccc3c(c2OC)CN(C(C)(C)O)C3=O)ncc1C(F)(F)F` [Compound 19, 2-(2-hydroxypropan-2-yl)-4-methoxy-5-(4-(methylamino)-5-(trifluoromethyl)pyrimidin-2-ylamino)isoindolin-1-one]: 4 nM.
The compound `CNc1nc(Nc2ccc3c(c2OC)CN(C2COC2)C3=O)ncc1C(F)(F)F` [Compound 20, 4-methoxy-5-(4-(methylamino)-5-(trifluoromethyl)pyrimidin-2-ylamino)-2-(oxetan-3-yl)isoindolin-1-one] had a Ki of 9 nM.
`CNc1nc(Nc2cc3c(cc2OC)C(=O)N(C)C3)ncc1C(F)(F)F` [Compound 21, 6-methoxy-2-methyl-5-(4-(methylamino)-5-(trifluoromethyl)pyrimidin-2-ylamino)isoindolin-1-one] showed a Ki of 5 nM.
The same measure for `CNc1nc(Nc2cc3c(cc2Cl)c(C(=O)N2CCOCC2)cn3C)ncc1C(F)(F)F` [Compound 22, (5-chloro-1-methyl-6-(4-(methylamino)-5-(trifluoromethyl)pyrimidin-2-ylamino)-1H-indol-3-yl)(morpholino)methanone]: 3 nM.
As to `CNc1nc(Nc2cc3c(cc2OC)C(=O)N(CC(C)(C)O)C3)ncc1C(F)(F)F` [Compound 23, 2-(2-hydroxy-2-methylpropyl)-6-methoxy-5-(4-(methylamino)-5-(trifluoromethyl)pyrimidin-2-ylamino)isoindolin-1-one], the Ki was determined as 10 nM.
Then `CCNc1nc(Nc2cc3c(cc2OC)C(=O)N(CC(C)(C)O)C3)ncc1C(F)(F)F` [Compound 24, 5-(4-(ethylamino)-5-(trifluoromethyl)pyrimidin-2-ylamino)-2-(2-hydroxy-2-methylpropyl)-6-methoxyisoindolin-1-one], with 3 nM.
The same measure for `CNc1nc(Nc2cc3c(cc2OC)C(=O)N(C2COC2)C3)ncc1C(F)(F)F` [Compound 25, 6-methoxy-5-(4-(methylamino)-5-(trifluoromethyl)pyrimidin-2-ylamino)-2-(oxetan-3-yl)isoindolin-1-one]: 6 nM; for `CCNc1nc(Nc2cc3c(cc2OC)C(=O)N(C2COC2)C3)ncc1C(F)(F)F` [Compound 26, 5-(4-(ethylamino)-5-(trifluoromethyl)pyrimidin-2-ylamino)-6-methoxy-2-(oxetan-3-yl)isoindolin-1-one]: 2 nM; for `CNc1nc(Nc2cc3c(cc2Cl)c(C(=O)N(C)C)cn3C)ncc1C(F)(F)F` [Compound 27, 5-chloro-N,N,1-trimethyl-6-(4-(methylamino)-5-(trifluoromethyl)pyrimidin-2-ylamino)-1H-indole-3-carboxamide]: 6 nM.
Then `CNc1nc(Nc2cc3c(cc2Cl)c(C(=O)N2CCNCC2)cn3C)ncc1C(F)(F)F` [Compound 28, (5-chloro-1-methyl-6-(4-(methylamino)-5-(trifluoromethyl)pyrimidin-2-ylamino)-1H-indol-3-yl)(piperazin-1-yl)methanone], with 4 nM; and `CCNc1nc(Nc2cc3c(cc2Cl)c(C(=O)N2CCOCC2)cn3C)ncc1C(F)(F)F` [Compound 29], with 1 nM; and `CNc1nc(Nc2cc3c(cc2OC)c(C(=O)N2CCOCC2)cn3C)ncc1C(F)(F)F` [Compound 30, (5-methoxy-1-methyl-6-(4-(methylamino)-5-(trifluoromethyl)pyrimidin-2-ylamino)-1H-indol-3-yl)(morpholino)methanone], with 1 nM.

As a reminder, the Ki is a measure of affinity in units of concentration, obtained from inhibition or displacement. Higher therefore signals lower affinity.
